Eight molecules from patent publication US7741280B2, “Multimeric molecules, the preparation method thereof and use of same for the preparation of medicaments” (Centre National de la Recherche Scientifique, priority 2002, dated 2010) can be followed below.

Where two headings read alike, the source gives them in different places. Where a SMILES comes first, the peptide text is derived from it. Bridges are numbered along the chain shown (N, C = ends). Roman numbers before positions name the chains, in order. Where no end group is shown, it is not given here. Side-chain parts run from the residue outwards. [ ]: non-standard residue; d: D form. Ahx = NCCCCCC(=O)O

The term IC50 denotes the concentration that gives 50% inhibition.

The target in assay [1] is T1, human CD40 muIg fusion protein (UniProt P01863+P25942).
T1 construct: purchased ANCELL Corporation, Bayport, Minn
T1 sequence (P25942+P01863 fused): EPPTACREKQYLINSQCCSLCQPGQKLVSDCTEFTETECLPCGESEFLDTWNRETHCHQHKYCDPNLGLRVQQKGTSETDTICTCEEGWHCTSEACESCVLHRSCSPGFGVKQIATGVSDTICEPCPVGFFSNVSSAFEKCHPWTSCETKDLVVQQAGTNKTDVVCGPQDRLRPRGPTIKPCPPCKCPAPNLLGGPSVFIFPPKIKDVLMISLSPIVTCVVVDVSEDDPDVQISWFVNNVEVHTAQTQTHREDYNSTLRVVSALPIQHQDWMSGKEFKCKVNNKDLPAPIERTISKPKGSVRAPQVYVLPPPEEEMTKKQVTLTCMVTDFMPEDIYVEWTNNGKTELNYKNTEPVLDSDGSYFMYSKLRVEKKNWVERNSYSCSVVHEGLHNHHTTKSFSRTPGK
As to the kind of experiment: Biacore3000 surface plasmon resonance study of the CD40/CD40L interaction and the ligands. The assay is classed as binding. From the text:
The Biacore3000 is a device which allows the interactions between two molecules to be studied, based on the surface plasmon resonance. It allows measurement in real time, and therefore allows the kinetics of interaction (association and disassociation) of an analyte (which is in an injected solution) and of a ligand (immobilised on a microchip supporting the measurement) to be monitored. The kinetic measurements at different concentrations of analyte allow calculation of the affinity constants of the interaction between the ligand and the analytes. The microchip contains four cells for different measurements, which allows direct comparison of a reference cell on which a protein which is not pertinent (protein which has no affinity with the ligand studied), but close to the ligand is immobilised with the cell on which the ligand is immobilised.
Rabbit antibodies directed against the constant region of mouse immunoglobulins were immobilized on a microchip. In the reference cell a monoclonal mouse antibody of isotype IgG2a (LG112) at 40 nM is immobilized with a flow of 5 μL/min for 2 minutes; in the cell of the ligand the recombinant CD40 associated with the constant region of the mouse IgG2a heavy chain (human CD40 muIg fusion protein, ANCELL Corporation, Bayport, Minn.) is immobilized under the same conditions.
On the two cells (reference and ligand), the CD40L (human CD154 muCD8 fusion protein, ANCELL Corporation) at different concentrations or the CD40L at a concentration of 1 μM or of 125 nM, are injected, as analyte, in the presence of different concentrations of ligands. The flow in the presence of the analytes is 10 μL/min for 5 minutes to study the association and, in the absence of analytes, the conditions are the same to study the dissociation.
In order to regenerate the cells (i.e. remove all the proteins adsorbed in a non-covalent manner), a solution of 10 mM of HCl is injected at 5 μL/min for 1 minute. The cells are then ready for another analysis.
On the technique in general: Surface plasmon resonance follows binding to a sensor surface in real time, without labels.

A further assay addresses T2, CD40-CD40L interaction (Homo sapiens, UniProt P25942).
T2 construct: they receive a signal via the CD40 molecule, which they express in a constitutive manner; endogenous in cells; host or cells: BL41 Burkitt's lymphoma cells (endogenous CD40), co-cultured with 3T6 fibroblasts transfected with CD40L
As to the kind of experiment: Expression of CD95 induced by CD40L on BL41 cells cultured with 3T6-CD40L fibroblasts (flow cytometry). The assay is classed as cell-based. To be noted: for % of inhibition of the expression of CD95 induced by CD40L: BL41 + 3T6-CD40L, 48 hours. As to the method: Then, the affinity of these ligands for the CD40 molecule is evaluated using a biosensor (BIAcore™). The agonist or antagonist effect of the ligands was tested using two simple biological tests. In the first, the expression of the membranous molecule CD95 by transformed B cells (Burkitt's lymphoma) is studied after activation by the CD40-CD40L interaction (Schattner et al., 1996). In such a model, the CD40L partner is expressed on transfected fibroblasts (3T6-CD40L) (Buelens et al., 1997). The BL41 Burkitt's lymphoma cells are incubated with non-transfected 3T6 fibroblasts (FIGS. 3A and 3C) or with 3T6 fibroblasts transfected by CD40L (FIGS. 3B and 3D). After 48 hours, the expression of CD95 is evaluated by flow cytometry. The expression of CD95 is induced in the presence of CD40L (FIG. 3B). A commercial anti-CD40L antibody inhibits the consequences of the CD40-CD40L interaction (FIG. 3D).
The antagonist effect is evaluated by measurement of the decrease in the expression of CD95 induced by the CD40L in the presence of the different chemical ligands (see Table I). With the help of these tests, the most interesting ligands are chosen to evaluate their activity in vivo and in vitro in more complex models.
The lymphoma B cells express the CD95 molecule when they receive a signal via the CD40 molecule, which they express in a constitutive manner. This signal is generally conveyed by the CD40L (CD154) molecule expressed by another cell. The antagonist ligands inhibit the binding of CD40 on CD40L and thus […] the expression of CD95. The agonist ligands copy the CD40L molecule and induce the expression of CD95 even in the absence of the cell expressing CD40L.
The BL41 Burkitt's lymphoma cells (5.10^5/ml) are cultured in the presence of 3T6 fibroblasts (10^5/ml) transfected (3T6-CD40L) or not transfected with CD40L (3T6), and treated with mitomycin to stop their proliferation. The ligands are added at the start of the culture at the chosen concentration. After culture for 48 hours, expression of the CD95 molecule is measured by flow cytometry. The BL41 cells are distinguished from the fibroblasts using an anti-CD19 antibody (specific marker of the B cells).

Assay [2] deals with CD40 molecule expressed constitutively by BL41 Burkitt's lymphoma cells (UniProt P25942). As to the kind of experiment: cell-based or functional assay.
Chain of CD40 molecule expressed constitutively by BL41 Burkitt's lymphoma cells (P25942 21-277 limits assumed): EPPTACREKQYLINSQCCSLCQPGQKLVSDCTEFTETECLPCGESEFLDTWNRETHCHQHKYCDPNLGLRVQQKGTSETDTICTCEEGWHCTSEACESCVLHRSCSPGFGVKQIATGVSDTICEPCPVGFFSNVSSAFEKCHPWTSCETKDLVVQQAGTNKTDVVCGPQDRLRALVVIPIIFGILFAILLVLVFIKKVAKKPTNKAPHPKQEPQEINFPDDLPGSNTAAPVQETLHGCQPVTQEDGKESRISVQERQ

T2 sequence (P25942 21-277): as the sequence (P25942 21-277 limits assumed) above

`NCCCC[C@H](N)C(=O)NCC(=O)N[C@@H](Cc1ccc(O)cc1)C(=O)N[C@@H](Cc1ccc(O)cc1)C(=O)NCCCCCC(=O)NCCCC[C@H]1CC(=O)N[C@@H](CCCCNC(=O)CCCCCNC(=O)[C@H](Cc2ccc(O)cc2)NC(=O)[C@H](Cc2ccc(O)cc2)NC(=O)CNC(=O)[C@@H](N)CCCCN)CC(=O)N[C@@H](CCCCNC(=O)CCCCCNC(=O)[C@H](Cc2ccc(O)cc2)NC(=O)[C@H](Cc2ccc(O)cc2)NC(=O)CNC(=O)[C@@H](N)CCCCN)CC(=O)N1` [L9]: the half-maximal inhibitory concentration (IC50) in assay [1] (in the presence of 100 nM of CD40L, read-out: inhibition of 50% of the binding of CD40L (IC50)) was < 0.05 µM. Besides, the “equilibrium constant compared with L4” value in assay [1] (inferred from IC50, same conditions as L4) is “less than that of L4”.

On to `C[C@H](NC(=O)[C@H](CCCCNC(=O)[C@H](CCCCNC(=O)[C@H](CCCCNC(=O)[C@H](CCCCNC(=O)[C@H](Cc1ccc(O)cc1)NC(=O)[C@H](Cc1ccc(O)cc1)NC(=O)CNC(=O)[C@@H](N)CCCCN)NC(=O)[C@H](Cc1ccc(O)cc1)NC(=O)[C@H](Cc1ccc(O)cc1)NC(=O)CNC(=O)[C@@H](N)CCCCN)NC(=O)[C@H](Cc1ccc(O)cc1)NC(=O)[C@H](Cc1ccc(O)cc1)NC(=O)CNC(=O)[C@@H](N)CCCCN)NC(=O)[C@H](Cc1ccc(O)cc1)NC(=O)[C@H](Cc1ccc(O)cc1)NC(=O)CNC(=O)[C@@H](N)CCCCN)NC(=O)[C@H](Cc1ccc(O)cc1)NC(=O)[C@H](Cc1ccc(O)cc1)NC(=O)CNC(=O)[C@@H](N)CCCCN)C(=O)O` [L3] (I: H-KGYYKA-OH / II: H-KGYYK([Tyr-Tyr-Gly-Lys]) / III: H-KGYYK / IV: H-KGYYK; amide I:5-IV:C, II:C-III:5, III:C-IV:5), for which the “% of inhibition of the expression of CD95 induced by CD40L” value at CD40-CD40L interaction (ligand 5 μM) was determined as 0%; on CD40-CD40L interaction (ligand 10 μM) it was 13%; on CD40-CD40L interaction (ligand 25 μM) it was 25%; at CD40-CD40L interaction (ligand 50 μM), 62%; at CD40-CD40L interaction (ligand 100 μM) it was 60%.

On to `CC(=O)NCCCC[C@H](NC(C)=O)C(=O)NCCCCC(NC(C)=O)C(=O)NCCCC[C@H](NC(C)=O)C(=O)NCCCC[C@H](NC(C)=O)C(=O)N[C@@H](C)C(=O)O` (some centres unmarked) [L2], for which, on CD40-CD40L interaction (BL41 cells in the presence of 3T6-CD40L cells, no concentration stated), the “effect on the expression of CD95 induced by CD40L (in words)” value is given as “no effect”. The “% of inhibition of the expression of CD95 induced by CD40L” value at CD40-CD40L interaction (ligand 25 μM), at CD40-CD40L interaction (ligand 50 μM) and on CD40-CD40L interaction (ligand 100 μM) was 0% throughout.

As for `C[C@H](NC(=O)[C@H](CCCCNC(=O)[C@H](CCCCNC(=O)[C@H](CCCCNC(=O)[C@H](CCCCNC(=O)[C@H](CCCNC(=N)N)NC(=O)[C@@H]1CCCN1C[C@@H](N)CCCCN)NC(=O)[C@H](CCCNC(=N)N)NC(=O)[C@@H]1CCCN1C[C@@H](N)CCCCN)NC(=O)[C@H](CCCNC(=N)N)NC(=O)[C@@H]1CCCN1C[C@@H](N)CCCCN)NC(=O)[C@H](CCCNC(=N)N)NC(=O)[C@@H]1CCCN1C[C@@H](N)CCCCN)NC(=O)[C@H](CCCNC(=N)N)NC(=O)[C@@H]1CCCN1C[C@@H](N)CCCCN)C(=O)O` [L1], in assay [1] (analyte CD40L at 1 μM and L1 at 50 μM, read-out: equilibrium constant), the Kd was > 50 µM. The “% of inhibition of the expression of CD95 induced by CD40L” value on CD40-CD40L interaction (ligand 25 μM) came to 0%; on CD40-CD40L interaction (ligand 50 μM) it was 43%; at CD40-CD40L interaction (ligand 100 μM), 60%.

With “L12: from linear 8-B core coupled with pentapeptide 1-A; linear version of L9 (chain Lys-Lys-Lys; peptide KGYY; not fully specified (some residues, C-terminus); also: peptide (pentapeptide 1-A) coupled to linear core 8-B, linkage and core structure not given here)”, the “binding to CD40 and displacement of CD40L (in words)” value in assay [1] (in the presence of 100 nM of CD40L) was “Only the L4 and L9 molecules bind to CD40”.

B1: Compound L4a (ligand L4a): same core molecule as L4 with only 2 examples of the peptide sequence (peptide)
chain: [dA]K[dA]K[dA]K
peptide: H-KGYY[Ahx]
modifications: also: two copies of chain 2 linked via Ahx to epsilon-amines of two core Lys, which Lys not given here, further groups not given here, head-to-tail to a chain's N/C-terminus
Regarding B1, in assay [2], the % of inhibition of the expression of CD95 induced by CD40L, ligand at 0.5 µM amounted to 0%; the % of inhibition of the expression of CD95 induced by CD40L, ligand at 5 µM came to 8%; the % of inhibition of the expression of CD95 induced by CD40L, ligand at 50 µM is 13%.

B2: Compound L2 (ligand L2), core structure of the ligands L1 and L3 (peptide)
chain: KKKKA
modifications: also: four Lys joined through epsilon-amines (isopeptide bonds), free amine groups acetylated
In assay [2], B2 returned a % of inhibition of the expression of CD95 induced by CD40L, ligand at 25 µM of 0%; a % of inhibition of the expression of CD95 induced by CD40L, ligand at 50 µM of 0%; a % of inhibition of the expression of CD95 induced by CD40L, ligand at 100 µM of 0%.

B3: CD40L: human CD154 muCD8 fusion protein, ANCELL Corporation (protein)
chain: KPQAPELRIFPKKMDAELGQKVDLVCEVLGSVSQGCSWLFQNSSSKLPQPTFVVYMASSHNKITWDEKLNSSKLFSAMRDTNNKYVLTLNKFSKENEGYYFCSVISNSVMYFSSVVPVLQKVNSTTTKPVLRTPSPVHPTGTSQPQRPEDCRPRGSVKGTGLDFACDIYHRRLDKIEDERNLHEDFVFMKTIQRCNTGERSLSLLNCEEIKSQFEGFVKDIMLNKEETKKENSFEMQKGDQNPQIAAHVISEASSKTTSVLQWAEKGYYTMSNNLVTLENGKQLTVKRQGLYYIYAQVTFCSNREASSQAPFIASLCLKSPGRFERILLRAANTHSSAKPCGQQSIHLGGVFELQPGASVFVNVTDPSQVSHGTGFTSFGLLKL
As for B3, the Kd in assay [1] (4 concentrations of CD40L from 62.5 to 500 nM, read-out: equilibrium constant of CD40L for CD40) was 0.054 µM.
